Consider three compounds from patent publication US12679878B2, “CRF2 receptor agonists and their use in therapy” (SANOFI, priority 2020, dated 2026).

Usually EC50 stands for the midpoint of the concentration-response curve. For orientation: Emax means the maximal effect, on the per cent scale that the assay sets. In general, solubility refers to the dissolved amount per volume that the medium holds.

In brackets after ≈: the same amount, converted by molar mass. Read-outs that look alike come from different tables or passages of the source. Starred links: 1 amine or outer side, 2 acyl side, 3 side chain; linkers in the order of their positions; H or OH if unused. Non-standard residues stand in square brackets, D forms with d. Residues, ends and D or L forms follow the SMILES beside them. Groups on a side chain read outwards from the residue. *: point of attachment. C16 diacid = O=C(O)CCCCCCCCCCCCCCC(=O)*; γGlu = O=C(O)[C@H](CCC(=O)[*:2])N[*:1]

One data set addresses T1, human CRF2α receptor (Homo sapiens, UniProt Q13324).
T1 construct: expressed in transfected cells; host or cells: TeloHEAC
T1 sequence (Q13324 1-411): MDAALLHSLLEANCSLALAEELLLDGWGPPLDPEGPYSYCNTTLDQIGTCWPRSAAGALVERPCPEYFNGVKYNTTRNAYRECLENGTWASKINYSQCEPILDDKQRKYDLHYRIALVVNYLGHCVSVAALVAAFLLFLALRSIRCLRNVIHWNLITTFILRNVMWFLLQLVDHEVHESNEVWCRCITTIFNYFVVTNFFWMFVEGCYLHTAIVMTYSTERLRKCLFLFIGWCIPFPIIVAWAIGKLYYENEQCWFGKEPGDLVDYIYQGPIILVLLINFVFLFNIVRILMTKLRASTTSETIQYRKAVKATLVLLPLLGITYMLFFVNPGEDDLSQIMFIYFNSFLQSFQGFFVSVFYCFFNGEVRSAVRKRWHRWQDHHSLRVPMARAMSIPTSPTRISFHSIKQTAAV
Nature of the data set: cAMP agonism at human CRF2α receptor in TeloHEAC cells, FA modified peptides (Example 19.9). It is filed as cell-based. As to conditions: 0% HSA, relative to urocortin 2. An outline of the steps:
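Efficacy and EC50 are referenced to 100 nM urocortin 2 as 100%, with cAMP measured as the 665/620 nm HTRF ratio after 1 h at room temperature. Compounds (0.5 mM DMSO stock, 16 twofold dilutions) acted 30 min at 37 °C on CRF2α-expressing TeloHEAC cells, buffer containing IBMX and 0% or 0.2% HSA.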

Another data set concerns the target T2, CRF1R receptor (Homo sapiens, UniProt P34998).
T2 construct: host or cells: CHO-K1 clone 2
T2 sequence (P34998 24-415): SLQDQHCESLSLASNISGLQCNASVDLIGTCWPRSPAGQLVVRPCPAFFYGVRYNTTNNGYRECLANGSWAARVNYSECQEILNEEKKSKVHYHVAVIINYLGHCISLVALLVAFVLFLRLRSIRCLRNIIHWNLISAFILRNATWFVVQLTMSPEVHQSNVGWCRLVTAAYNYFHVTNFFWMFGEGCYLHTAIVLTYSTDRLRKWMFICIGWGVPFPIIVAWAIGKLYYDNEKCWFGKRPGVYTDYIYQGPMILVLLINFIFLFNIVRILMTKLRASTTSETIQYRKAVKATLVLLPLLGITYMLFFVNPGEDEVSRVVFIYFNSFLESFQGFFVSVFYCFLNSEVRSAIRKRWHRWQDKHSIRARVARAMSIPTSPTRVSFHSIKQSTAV
Nature of the data set: cAMP activity at anti-target CRF1R, CHO-K1 cell line clone 2 (Example 19.10). It is filed as cell-based. As to conditions: for Emax: 100% = Sauvagine at 100 nM; for CRF1/CRF2 ratio: ratio of CRF1 EC50 to CRF2 EC50. An outline of the steps:
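A CRF1R-overexpressing CHO-K1 line (clone 2) was grown in F12/10% FBS/G418 and frozen in aliquots before use. The cAMP assay followed the preceding procedure, with 100% activation defined by Sauvagine at 100 nM.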

Data set [1] can be described thus: In vitro plasma stability, rat plasma (Example 19.11). The settings on record: male, Sprague Dawley, rat, plasma, 37° C. Set-up: remaining at 2 h: dose or concentration left out as unconfirmed. The format is in vitro ADME, Sprague Dawley rats. As for the experimental part:
(§1) In vitro plasma metabolic stability was studied in male Sprague Dawley rats and human. Test compound were incubated […] for 2 hours at 37° C. At each time point (0, 0.25, 1 and 2 h), samples were prepared for analysis by means of a single step protein precipitation technique by adding 150 μL of ethanol, 0.1% formic acid to 50 μL aliquots of plasma. Samples were mixed by vortex for homogeneity and then subjected to centrifugation at 14000 rpm for 15 min. The supernatant (100 μL) was collected, diluted with 100 μL of water, 0.1% formic acid and analyzed by LC-HRMS (TripleTOF 6600+, AB Sciex). For each test compound, the area ratios at each time point were compared to the 0 h area ratio and converted to a percentage remaining.

Data set [2] is described as follows: In vitro plasma stability, human plasma (Example 19.11). The arrangement: dose or concentration left out as unconfirmed. The format is in vitro ADME. As to conditions: 37° C. As for the experimental part:
as §1

Data set [3] in a line: Buffer solubility by LC-UV, pH 7.4 phosphate and pH 4.5 acetate (Example 19.11). The format is physicochemical. As to conditions: target 10 mg/mL. An outline of the steps:
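Powders dissolved at a target 10 mg/mL in 100 mM phosphate pH 7.4 or 100 mM acetate pH 4.5, held 1 h at room temperature, then centrifuged. Diluted supernatant analysed by LC-UV; solubility from peak area against the same compound at 0.5 mg/ml in water:acetonitrile 1:1 with 0.1% formic acid.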

The nature of data set [4]: Chemical stability as % loss by LC-UV, 28 days 40° C. vs 5° C. (Example 19.11). The format is physicochemical. As for the experimental part: As for example 15 above, also the chemical stability of representative examples of these FA modified peptides has been assessed, using LC-UV instead of light scattering. Solubility and chemical stability were studied in 100 mM phosphate buffer (pH 7.4) and 100 mM acetate buffer (pH 4.5). Test compound powders were dissolved in both buffers at a target concentration of 10 mg/mL and incubated for 1 hour at room temperature. After centrifugation at 2500 rcf for 15 minutes, […] of supernatant was diluted with […] of the incubation buffer and analyzed by LC-UV (Acquity UPLC-DAD, Waters). Solubility was calculated by comparing the peak area of the test compound in the buffer sample with the peak area of the same compound dissolved at 0.5 mg/ml in water:acetonitrile 1:1, 0.1% formic acid.
From the centrifuged supernatant, two additional […] aliquots were collected and diluted with […] of incubation buffer. One aliquot was stored at 5° C., while the other was stored at 40° C. After 28 days, the samples were analyzed by LC-UV. Chemical stability was calculated as % loss using the following equations: • Chemical stability (as % loss)=[(purity after 28 days at 5° C.)−(purity after 28 days at 40° C.)]×100/(purity after 28 days at 5° C.) % purity=[(peak area compound)×100/(total peak area)]

Setting [5] is: 0% HSA, CRF1R CHO-K1 clone 2, read-out: EC50 [nM] 0% HSA.
[6] abbreviates: pH 7.4, 100 mM phosphate buffer.

For the compound `CC[C@H](C)[C@H](N)C(=O)N[C@H](C(=O)N[C@@H](CC(C)C)C(=O)N[C@@H](CO)C(=O)N[C@@H](CC(C)C)C(=O)N[C@@H](CC(=O)O)C(=O)N[C@@H](C(=O)N1CCC[C@H]1C(=O)N[C@H](C(=O)N[C@@H](CCCCN)C(=O)N[C@@H](CC(C)C)C(=O)N[C@@H](CCCCNC(=O)CC[C@H](NC(=O)CCCCCCCCCCCCCCC(=O)O)C(=O)O)C(=O)N[C@@H](CCC(N)=O)C(=O)N[C@H](C(=O)N[C@@H](CC(C)C)C(=O)N[C@@H](CC(C)C)C(=O)N[C@@H](CCCCN)C(=O)N[C@@H](CCC(N)=O)C(=O)N[C@@H](CCC(=O)O)C(=O)N[C@@H](CCCNC(=N)N)C(=O)N[C@@H](CCC(N)=O)C(=O)N[C@@H](CCCCN)C(=O)N[C@@H](CCCCN)C(=O)N[C@@H](CCC(N)=O)C(=O)N[C@@H](CCCNC(=N)N)C(=O)N[C@@H](CCC(=O)O)C(=O)N[C@@H](CCC(N)=O)C(=O)N[C@@H](C)C(=O)N[C@@H](CCC(=O)O)C(=O)N[C@@H](CCCCN)C(=O)N[C@@H](CC(N)=O)C(=O)N[C@@H](CCCCN)C(=O)N[C@@H](CCC(N)=O)C(=O)N[C@H](C(=O)N[C@@H](CC(C)C)C(=O)N[C@@H](CCC(=O)O)C(=O)N[C@@H](CCC(N)=O)C(=O)N[C@H](C(N)=O)C(C)C)[C@@H](C)CC)[C@@H](C)CC)[C@@H](C)CC)C(C)C)C(C)C` [compound 190] (H-IVLSLD[dV]PIKLK([γGlu-C16 diacid])QILLKQERQKKQREQAEKNKQILEQV-NH2; N-terminus assumed), the EC50 on human CRF2α receptor was 2.47 nM; at CRF1R receptor (setting [5]), more than 100 nM; on CRF1R receptor (Table 20 side-to-side comparison, read-out: CRF1 EC50) it was more than 100 nM. At CRF1R receptor (CRF1R CHO-K1 clone 2), this compound yielded a maximal response (Emax) of 12%. In addition, the CRF1/CRF2 ratio on CRF1R receptor is listed as more than 500. Also, the share remaining at 2 h in data set [1] turned out to be 92%; in data set [2], 100%. The solubility at 1 h in data set [3] (pH 4.5, 100 mM acetate buffer) worked out at 8500 µg/mL (≈ 1720 µM); in data set [3] (setting [6]) it was 8500 µg/mL (≈ 1720 µM). In addition, the “% loss (chemical stability)” value stood at 0% in data set [4] (pH 4.5) and 35% in data set [4] (pH 7.4).
Consider `CC[C@H](C)[C@H](N)C(=O)N[C@H](C(=O)N[C@@H](CC(C)C)C(=O)N[C@@H](CO)C(=O)N[C@@H](CC(C)C)C(=O)N[C@@H](CC(=O)O)C(=O)N[C@@H](C(=O)N1CCC[C@H]1C(=O)N[C@H](C(=O)N[C@@H](CCCCN)C(=O)N[C@@H](CC(C)C)C(=O)N[C@@H](CCCCNC(=O)CC[C@H](NC(=O)CCCCCCCCCCCCCCC(=O)O)C(=O)O)C(=O)N[C@@H](CCC(N)=O)C(=O)N[C@H](C(=O)N[C@@H](CC(C)C)C(=O)N[C@@H](CC(C)C)C(=O)N[C@@H](CCCCN)C(=O)N[C@@H](CCC(N)=O)C(=O)N[C@@H](CCC(=O)O)C(=O)N[C@@H](CCCNC(=N)N)C(=O)N[C@@H](CCC(N)=O)C(=O)N[C@@H](CCCCN)C(=O)N[C@@H](CCCCN)C(=O)N[C@@H](CCC(N)=O)C(=O)N[C@@H](CCCNC(=N)N)C(=O)N[C@@H](CCC(=O)O)C(=O)N[C@@H](CCCCN)C(=O)N[C@@H](C)C(=O)N[C@@H](CCC(=O)O)C(=O)N[C@@H](CCCCN)C(=O)N[C@@H](CC(N)=O)C(=O)N[C@@H](CCCCN)C(=O)N[C@@H](CCC(N)=O)C(=O)N[C@H](C(=O)N[C@@H](CC(C)C)C(=O)N[C@@H](C)C(=O)N[C@@H](CCC(N)=O)C(=O)N[C@H](C(N)=O)C(C)C)[C@@H](C)CC)[C@@H](C)CC)[C@@H](C)CC)C(C)C)C(C)C` [compound 191] (H-IVLSLD[dV]PIKLK([γGlu-C16 diacid])QILLKQERQKKQREKAEKNKQILAQV-NH2), for which the EC50 on human CRF2α receptor was 2.68 nM; on CRF1R receptor (setting [5]), more than 100 nM. Moreover, on CRF1R receptor (CRF1R CHO-K1 clone 2), the Emax is 12.5%. Further, the fraction remaining at 2 h in data set [1] amounted to 85%; in data set [2], 96%. For the same compound, the solubility at 1 h in data set [3] (pH 4.5, 100 mM acetate buffer) is 8500 µg/mL (≈ 1740 µM); in data set [3] (setting [6]), 9000 µg/mL (≈ 1840 µM). The figures for the “% loss (chemical stability)” value in data set [4] (pH 4.5) and in data set [4] (pH 7.4) were 0% and 54%, respectively.
The compound `CC[C@H](C)[C@H](N)C(=O)N[C@H](C(=O)N[C@@H](CC(C)C)C(=O)N[C@@H](CO)C(=O)N[C@@H](CC(C)C)C(=O)N[C@@H](CC(=O)O)C(=O)N[C@@H](C(=O)N1CCC[C@H]1C(=O)N[C@H](C(=O)N[C@@H](CCCCN)C(=O)N[C@@H](CC(C)C)C(=O)N[C@@H](CCCCNC(=O)CC[C@H](NC(=O)CCCCCCCCCCCCCCC(=O)O)C(=O)O)C(=O)N[C@@H](CCC(N)=O)C(=O)N[C@H](C(=O)N[C@@H](CC(C)C)C(=O)N[C@@H](CC(C)C)C(=O)N[C@@H](CCCCN)C(=O)N[C@@H](CCC(N)=O)C(=O)N[C@@H](CCC(=O)O)C(=O)N[C@@H](CCCNC(=N)N)C(=O)N[C@@H](CCC(N)=O)C(=O)N[C@@H](CCCCN)C(=O)N[C@@H](CCCCN)C(=O)N[C@@H](CCC(N)=O)C(=O)N[C@@H](CCCNC(=N)N)C(=O)N[C@@H](CCC(N)=O)C(=O)N[C@@H](CCC(N)=O)C(=O)N[C@@H](C)C(=O)N[C@@H](CCC(=O)O)C(=O)N[C@@H](CCCCN)C(=O)N[C@@H](CC(N)=O)C(=O)N[C@@H](CCCCN)C(=O)N[C@@H](CCC(N)=O)C(=O)N[C@H](C(=O)N[C@@H](CC(C)C)C(=O)N[C@@H](C)C(=O)N[C@@H](CCC(N)=O)C(=O)N[C@H](C(N)=O)C(C)C)[C@@H](C)CC)[C@@H](C)CC)[C@@H](C)CC)C(C)C)C(C)C` [compound 192] (H-IVLSLD[dV]PIKLK([γGlu-C16 diacid])QILLKQERQKKQRQQAEKNKQILAQV-NH2; N-terminus assumed) had a concentration giving a half-maximal response (EC50) on human CRF2α receptor of 0.83 nM. In addition, the CRF1/CRF2 ratio at CRF1R receptor worked out at 68. Further, the figures for the amount remaining at 2 h in data set [1] and in data set [2] were 109% and 95%, respectively. For the same compound, the solubility at 1 h in data set [3] (pH 4.5, 100 mM acetate buffer) came out at 8400 µg/mL (≈ 1720 µM); in data set [3] (setting [6]) it was 7900 µg/mL (≈ 1610 µM). The “% loss (chemical stability)” value came out at 0% in data set [4] (pH 4.5) and 49% in data set [4] (pH 7.4).
